# According to patent US20060025401A1, “Use of inhibitors of the sodium-dependent chloride/bicarbonate exchanger for the treatment of thrombotic and inflammatory disorders” (Sanofi-Aventis Deutschland GmbH, priority 2002, published 2006):
# Columns and labels:
# [1] = tested on: human umbilical vein endothelial cells (HUVEC); experiment: Measurement of vWF release after reperfusion (ELISA of cell supernatant); assay type: cell-based
# Procedure: All the examples were carried out with human umbilical vein endothelial cells (HUVEC). These comprise primary cell cultures isolated from the umbilical vein.
# For the following examples, the cells were cultivated either on gelatinized glass plates (measurement of the intracellular proton concentration) or on cell culture plates (12-well culture plates, Falcon, N.J., USA; measurement of vWF release) after the first passage.
# The measurements were carried out in a Heraeus Heracell incubator. This made it possible to […] the umbilical vein endothelial cells under controlled physiological conditions (temperature 37° C., relative humidity 100%, pCO2 constant at 5%) and to ensure rapid change of different cell culture media. […]
# The samples taken from the supernatant were used to determine the vWF concentration. […] The vWF content of standard human plasma (Behring, Marburg) is calculated using an international standard (2nd International Standard 87/718; National Institute for Biological Standards and Control, London).
# Table 4: vWF secretion was measured during a 10-minute reperfusion time with stimulation. […]
# [2] = tested on: human umbilical vein endothelial cells (HUVEC); experiment: Measurement of the intracellular pH (BCECF fluorescence) during reperfusion simulation after acidosis; assay type: cell-based; details: reperfusion buffer pH 7.4 with 10 μM histamine after 60 minutes of acidosis (pHex 6.4); inhibitors each 10 μM; found from first 30 seconds after reperfusion; Mean ± SEM; control buffer 18 ± 1.5
# Procedure: All the examples were carried out with human umbilical vein endothelial cells (HUVEC). These comprise primary cell cultures isolated from the umbilical vein. For the following examples, the cells were cultivated either on gelatinized glass plates (measurement of the intracellular proton concentration) or on cell culture plates (12-well culture plates, Falcon, N.J., USA; measurement of vWF release) after the first passage. To measure the intracellular proton concentration (pHi), the HUVECs were loaded with the pH-sensitive fluorescent dye BCECF-AM (2′,7′-bis(carboxyethyl)-5(6)-carboxyfluorescein). A Deltascan spectrofluorometer (PTI, Hamburg) was employed for the subsequent fluorescence measurement. This measuring system consists essentially of a UV light source, a monochromator, a photon detector and the Felix and Oscar software packages (PTI, Hamburg) for controlling the system via a computer. After alternate excitation with the wavelengths 439.5 nm (pH-independent) and 490 nm (pH-sensitive), the ratio of the measured emissions of the BCECF (ratio) was reported and the pH was found after a calibration. The measuring cell is designed so that the parameters of temperature and carbon dioxide partial pressure in the system are controlled during continuous perfusion. […]
SMILES,"vWF secretion during reperfusion of preacidotic cells, relative to control cells (vWFco = 100%) ([1]; 10 μM compound, 10-minute reperfusion time with stimulation (10 μM histamine), preacidotic cells without inhibitor 193 ± 8.0%) [%]","reduction of the increased vWF secretion during reperfusion ([1]; blockade of the NCBE transporter, 10 μM, reperfusion of preacidotic cells) [%]","Time to Δ PHi, max/2 (time to the half-maximum pHi change) [2] [s]"
"COCCOc1nc(-c2ccccc2)n(Cc2ccc(-c3ccccc3S(=O)(=O)NC#N)cc2S(C)(=O)=O)c1C=O [Compound 1, 4′-[5-formyl-4-(2-methoxyethoxy)-2-phenyl-1-imidazolylmethyl]-3′-methylsulfonylbiphenyl-2-sulfonylcyanamide]",157 ± 18,~50,
"CC(C)c1ccc(C(=O)NC(=N)N)cc1S(C)(=O)=O [NHE, cariporide]",,,190 ± 2.9
